The test deals with T1, STRADα (Homo sapiens, UniProt Q7RTN6).
T1 construct: wild-type and mutant forms of STRADα (residues 54–431) and MO25α (residues 1–341) were expressed individually as GST fusion proteins in E. coli; GST (cleaved yes); made in house; host or cells: E. coli
T1 sequence (Q7RTN6 54-431): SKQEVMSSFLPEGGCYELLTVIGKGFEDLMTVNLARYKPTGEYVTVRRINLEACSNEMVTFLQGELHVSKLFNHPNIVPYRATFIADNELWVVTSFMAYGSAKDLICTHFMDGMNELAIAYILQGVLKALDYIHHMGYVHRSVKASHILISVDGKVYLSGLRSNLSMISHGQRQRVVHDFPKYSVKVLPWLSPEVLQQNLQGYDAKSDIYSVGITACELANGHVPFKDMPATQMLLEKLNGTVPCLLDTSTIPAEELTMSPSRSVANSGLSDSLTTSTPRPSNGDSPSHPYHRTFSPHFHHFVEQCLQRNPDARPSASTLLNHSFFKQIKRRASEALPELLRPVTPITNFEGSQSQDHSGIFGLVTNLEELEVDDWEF
Briefly: Displacement of TNP-ATP by ATP and ADP (fluorescence). Conditions: STRADα alone, No Mg2+, displacement of 5 µM TNP-ATP. The class given is binding. The protocol:
Fluorescent measurements of TNP-ATP (Molecular Probes), were obtained at 25°C in assay buffer (with the addition of 0.5–1.0 mM MgCl2 where indicated) using 1-cm pathlength cuvettes in a VARIAN Cary Eclipse Fluorescence spectrophotometer (Varian). Fluorescence was recorded using a 410-nm/540-nm excitation/emission wavelengths from 500 to 600 nm. In all cases, signal from the TNP-ATP buffer control was subtracted as background. For all binding studies, STRADα and STRADα mutants were assayed at 2 µM. In cases where STRADα/MO25α complexes were assayed, wild-type or mutant MO25α (2 µM) were preincubated for at least 2 h at 4°C prior to a fluorescence binding experiment. For saturation binding experiments, concentrated stocks of TNP-ATP were added stepwise, covering a range of concentrations from 0.05 to 30 µM. For displacement experiments, the concentration of TNP-ATP was fixed at 5 µM, and ATP or ADP was titrated in, covering a range of concentrations from 0.05 to 500 µM.
All data were analysed using GraphPad-PRISM software (http://www.graphpad.com). […] In the displacement studies, equilibrium constant values for ATP and ADP were calculated by first determining the logEC50 value, using a standard dose-response equation: F x/F max = minimum+(maximum−minimum)/(1+10^([N]−logEC 50 ^)), where [N] equals the concentration of added nucleotide, and F x/F max represents the fractional occupancy. […]

The term Kd denotes the free concentration of one partner at which half of the binding sites on the other are occupied at equilibrium, for simple one-to-one binding.

Structures are written as SMILES. Where two headings read alike, the source gives them in different places.

In the case of `Nc1ncnc2c1ncn2[C@@H]1O[C@H](COP(=O)(O)OP(=O)(O)O)[C@@H](O)[C@H]1O` [ADP], the Kd (read-out: Kd ADP) was in the range of 2000 to 3000 nM.
Consider `Nc1ncnc2c1ncn2[C@@H]1O[C@H](COP(=O)(O)OP(=O)(O)OP(=O)(O)O)[C@@H](O)[C@H]1O` [ATP], for which, under “read-out: Kd ATP”, the Kd lay in the range of 2000 to 3000 nM.

The values are drawn from PMC2686265, “ATP and MO25α Regulate the Conformational State of the STRADα Pseudokinase and Activation of the LKB1 Tumour Suppressor” (PLoS Biology, 2009).
